Test results taken from US20220218765A1, “ASSISTANT AGENT FOR ASSISTING INTRODUCTION INTO LIVING BODY AND METHOD OF UTILIZING THE SAME” (SHINBIOSIS CORPORATION, priority 2019, published 2022).

Test system: STZ-induced diabetes model mouse (STZ-mouse)
Test: Blood glucose level in STZ-induced diabetes model mouse (Test Example 4-1)
Type: in vivo, CD-1 (ICR) mice
Details: STZ-mice, Day 14 after the treatment
Protocol: The “complex containing an active substance” was injected into the intestine of a STZ-induced diabetes model mouse (STZ-mouse) together with the “assistant agent for assisting introduction into a living body”, and then measurement of a “change in plasma glucose (blood glucose level) (Test Example 4-1)” and “measurement of the plasma insulin level (Test Example 4-2)” at the end of the treatment were performed.
“Compositions containing an active substance” below were prepared by mixing the above-described “active substance complex (Bio3 formulation)” with the respective “assistant agents for assisting introduction into a living body” above, and were then used in the experiments.
CD-1 (ICR) mice (male, 4 weeks old) purchased from Charles River Japan were preliminarily kept for 1 week before experiment.
Procedure for Producing Disease Model Mice STZ (40 mg/kg) prepared in a citrate buffer (100 mmol/L, pH 4.5) was intravenously administered (iv) to the tail veins of the above-mentioned mice.
One week after, blood was collected from ophthalmic venous plexus of the mice with a capillary, and the mice were divided into the following four groups (six mice per group) based on the measured blood glucose levels such that the average blood glucose levels of the groups were equal to one another as follows. […]

## insulin
  blood glucose level as ratio to the non-treated control group: up to 60%
